Consider ten molecules from ChEMBL document CHEMBL5154690, “Discovery of a tricyclic farnesoid X receptor agonist HEC96719, a clinical candidate for treatment of non-alcoholic steatohepatitis” (Eur J Med Chem, 2022).

Each structure is given as a SMILES string. pEC50: −log10 of the molar value. Calls of active or inactive are those of the source.

Series [1] deals with T1, Bile acid receptor (Homo sapiens, UniProt Q96RI1).
T1 sequence (Q96RI1 whole entry): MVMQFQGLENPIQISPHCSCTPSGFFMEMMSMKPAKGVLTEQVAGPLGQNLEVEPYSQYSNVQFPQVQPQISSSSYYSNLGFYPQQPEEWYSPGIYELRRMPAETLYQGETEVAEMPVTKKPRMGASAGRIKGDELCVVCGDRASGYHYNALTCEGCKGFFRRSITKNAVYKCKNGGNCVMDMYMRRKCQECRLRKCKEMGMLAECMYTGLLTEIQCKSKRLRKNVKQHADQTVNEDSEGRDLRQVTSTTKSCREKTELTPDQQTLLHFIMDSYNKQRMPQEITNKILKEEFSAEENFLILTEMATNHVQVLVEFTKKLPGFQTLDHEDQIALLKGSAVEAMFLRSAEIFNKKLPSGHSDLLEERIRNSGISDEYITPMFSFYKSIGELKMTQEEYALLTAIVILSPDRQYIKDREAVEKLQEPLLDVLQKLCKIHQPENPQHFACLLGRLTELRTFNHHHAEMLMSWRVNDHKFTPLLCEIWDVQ
The series can be described thus: Agonist activity at FXR-LBD (unknown origin) assessed as induction of coactivator SRC-1 peptide recruitment measured by TR-FRET assay. In general terms: Time-resolved FRET reads energy transfer from a long-lived donor to a nearby acceptor.

Series [2] deals with T1, Bile acid receptor. Description: Agonist activity at human FXR expressed in HEK293T cells by luciferase reporter assay. The class given is cell-based. (Reporter assays use an easily measured gene product as a stand-in for the process of interest.)
A short description of series [3]: AUC (0 to t) in male Sprague-Dawley rat at 5 mg/kg, po measured by LC-MS/MS analysis. In kind it is ADME, organism-based. Also on record: dose 5 mg/kg, route po. The settings on record: in vivo.
Series [4] can be described thus: Cmax in male Sprague-Dawley rat at 5 mg/kg, po measured by LC-MS/MS analysis. Also on record: dose 5 mg/kg, route po. Particulars: in vivo. The class given is ADME, organism-based.
Series [5] can be described thus: Volume of distribution at steady state in male Sprague-Dawley rat at 1 mg/kg, iv measured by LC-MS/MS analysis. In kind it is ADME, organism-based. Particulars: in vivo, read-out: Vdss.
Series [6] can be described thus: AUC (0 to t) in male Sprague-Dawley rat at 1 mg/kg, iv measured by LC-MS/MS analysis. Also on record: dose 1 mg/kg, route iv. Particulars: in vivo. The class given is ADME, organism-based.
Series [7] is described as follows: Oral bioavailability in male Sprague-Dawley rat at 5 mg/kg measured by LC-MS/MS analysis. In kind it is ADME, organism-based. Particulars: in vivo.
Series [8] relates to Mus musculus. The series can be described thus: Anti-NASH activity against high fat (HF) diet-induced nonalcoholic steatohepatitis in leptin-deficient ob/ob mouse model assessed as reduction in liver cholesterol level at 3 mg/kg, po administered once daily from week 5 to 10. In kind it is functional, organism-based.
Series [9] can be described thus: Clearance in male Sprague-Dawley rat at 1 mg/kg, iv measured by LC-MS/MS analysis. In kind it is ADME, organism-based. Particulars: in vivo.
The nature of series [10]: Half-life in male Sprague-Dawley rat at 5 mg/kg, po measured by LC-MS/MS analysis. The class given is ADME, organism-based. The settings on record: in vivo.
Series [11] concerns Mus musculus. The series can be described thus: Anti-NASH activity against high fat (HF) diet-induced nonalcoholic steatohepatitis in leptin-deficient ob/ob mouse model assessed as reduction in serum ALT level at 3 mg/kg, po administered once daily from week 5 to 10. In kind it is functional, organism-based.
For series [12], the system named is Mus musculus. Description: Anti-NASH activity against high fat (HF) diet-induced nonalcoholic steatohepatitis in leptin-deficient ob/ob mouse model assessed as reduction in serum TG level at 3 mg/kg, po administered once daily from week 5 to 10. The class given is functional, organism-based.
Series [13] is described as follows: Toxicity in alpha-naphthyl- isothiocyanate (ANIT)-induced cholestatic injury model of Sprague-Dawley rat assessed as effect on […] death at 10 mg/kg, po administered once daily for 4 days. The class given is organism-based. Particulars: in vivo, 96 h, time 4 day.
Series [14] in a line: Toxicity in alpha-naphthyl- isothiocyanate (ANIT)-induced cholestatic injury model of Sprague-Dawley rat assessed as effect on […] death. The settings on record: in vivo.

As usually defined, the pEC50 is the EC50 on a negative log10 scale, so that one unit is a factor of ten. In the case of `O=C(O)c1ccc2c(c1)Oc1cnc(OCc3c(-c4c(Cl)cccc4Cl)noc3C3CC3)cc1CC2`, the pEC50 at Bile acid receptor [1] is 7.93; on Bile acid receptor [2], 6.79.

For `O=C(O)c1cc(F)c2c(c1)Oc1ccc(OCc3c(-c4c(Cl)cccc4Cl)noc3C3CC3)nc1CC2`, the pEC50 at Bile acid receptor [2] was 6.43.

`O=C(O)c1ccc2c(c1)Oc1ncc(OCc3c(-c4c(Cl)cccc4Cl)noc3C3CC3)cc1CC2`: the pEC50 on Bile acid receptor [1] was 7.43.

Regarding `O=C(O)c1ccc2c(c1)Oc1ccc(OCc3c(-c4c(Cl)cccc4Cl)noc3C3CC3)nc1CO2`, the pEC50 on Bile acid receptor [1] was 7.84; at Bile acid receptor [2] it was 6.94.

As a reminder, the AUC(0-t) is the area under the concentration-time curve up to a stated or last time point. Low readings indicate low exposure, high ones high exposure. Usually Cmax stands for the maximum level reached in the sampled fluid or tissue. A word on the bioavailability: it is the share of a dose that reaches the circulation, judged against a reference dose that is usually intravenous. As a reminder, the clearance is the volume of plasma or blood freed of the substance per unit of time. A high value points to efficient removal. One may read the half-life as the time needed for the level to fall by half in the phase considered. Low readings indicate rapid decline, high ones slow decline. Take `CC1=Cc2ccc(C(=O)O)cc2Oc2ccc(OCc3c(-c4c(Cl)cccc4Cl)noc3C3CC3)nc21`: the AUC(0-t) in [3] is 1180 ng·h/mL; in [6], 963 ng·h/mL. This molecule showed a Cmax in series [4] of 2210 ng/mL. Besides, in series [5], the Vd was found to be 0.35 L/kg. The molecule also gave a bioavailability in series [7] of 46.2%. Moreover, the outcome with Mus musculus [8], with Mus musculus [11] and in the series on Mus musculus [12] was Active. This molecule displayed a clearance in series [9] of 17.5 mL/min/kg. In [10], this molecule had a half-life of 72 min.

In the case of `O=C(O)c1ccc2c(c1)Oc1ccc(OCc3c(-c4c(Cl)cccc4Cl)noc3C3CC3)nc1C=C2F`, the negative logarithm of the EC50 (pEC50) on Bile acid receptor [1] was 7.76; on Bile acid receptor [2], 6.66.

As for `CC1=Cc2nc(OCc3c(-c4c(Cl)cccc4Cl)noc3C3CC3)ccc2Oc2cc(C(=O)O)ccc21`, the pEC50 at Bile acid receptor [1] is 8.22; on Bile acid receptor [2], 7.06.

As to `O=C(O)c1ccc2c(c1)Oc1ccc(OCc3c(-c4c(Cl)cccc4Cl)noc3C3CC3)cc1CC2`, the negative-log EC50 (pEC50) on Bile acid receptor [1] was 6.08; on Bile acid receptor [2], 6.46. Also, the Activity result in series [13] is on record as “Toxic”.

`O=C(O)c1ccc2c(c1)Oc1ccc(OCc3c(-c4c(Cl)cccc4Cl)noc3C3CC3)nc1CC2`: the AUC(0-t) turned out to be 1250 ng·h/mL in series [3] and 1180 ng·h/mL in [6]. Further, the pEC50 is 8.45 on Bile acid receptor [1] and 6.99 at Bile acid receptor [2]. In series [4], this molecule returned a Cmax of 3000 ng/mL. For the same molecule, in series [5], the Vd stood at 0.4 L/kg. The molecule further displayed a bioavailability in series [7] of 37.1%. Further, the result with Mus musculus [8], in the series with Mus musculus [11] and in the series on Mus musculus [12] was Active. In addition, the clearance in series [9] was found to be 14.3 mL/min/kg. Also, in series [10], the half-life is 44.4 min. Besides, in series [14], the Activity result is given as “Non-Toxic”.

`CC1Cc2ccc(C(=O)O)cc2Oc2ccc(OCc3c(-c4c(Cl)cccc4Cl)noc3C3CC3)nc21` (stereo unspecified): the AUC(0-t) was 2230 ng·h/mL in [3] and 554 ng·h/mL in [6]. In series [4], this molecule showed a Cmax of 1280 ng/mL. Also, the Vd in series [5] worked out at 0.54 L/kg. For the same molecule, the bioavailability in [7] worked out at 44.9%. Moreover, the result in the series with Mus musculus [8], in the series with Mus musculus [11] and in the series on Mus musculus [12] was Active. The same molecule showed a clearance in [9] of 30.3 mL/min/kg. In [10], this molecule had a half-life of 55.8 min.
